These compounds were tested against T1, integrin α4β1 (Homo sapiens, UniProt P05556+P13612) (assay: Inhibition of α4β1-dependent cell adhesion (Jurkat cells to peptide CS-1)). Conditions: adhesion of Jurkat cells to CS-1-coated plates; products preincubated with cells at 37° C. for 30 minutes; at least 6 product concentrations.
T1 construct: endogenous in cells; host or cells: Jurkat cells
Format: cell-based
Procedure: Inhibition of α4β1-Dependent Cell Adhesion
Inhibition of α4β1-dependent cell adhesion was assayed by evaluating the interaction between the peptide CS-1 (H-CLHGPEILDVPST-CONH2) and Jurkat cells (T lymphocyte cell line expressing activated integrin α4β1 but not integrin α4β7) after preincubation of said cells with the compounds of formula I to be tested. The peptide CS-1 was synthesized by conventional solid phase chemistry and purified by HPLC. Its identity was determined by elemental analysis and mass spectroscopy.
1.—Preparation of CS-1-Coated Plates
96-black well plates (Costar 3925) were used. 200 μL of 2% bovine serum albumin solution (BSA, Sigma α4503) was added per well and the plate was incubated for 2 hours at 37° C. The solution was discarded and the plate was washed twice with 200 μL of phosphate buffered saline solution (PBS, Gibco 14190-094) per well. Then, 200 μL of 10 μg/mL N-succinimidyl 3-(2-pyridyldithio)propionate solution (SPDP, Sigma P-3415) was added per well, and the plate was incubated at 37° C. for 30 minutes. The remaining solution was discarded and the plate was twice washed with 200 μL per well of PBS. Next, 200 μL of 25 μg/mL CS-1 peptide solution (equivalent to 5 μg/well) was added per well and the plate was incubated at 37° C. for 2 hours and then overnight at 4° C.
2.—Jurkat Cell Line: Culture and Fluorescent Labelling
Jurkat cells were kept in culture at a density comprised between 2×10^5 and 1.5×10^6 cells/mL in 1640 RPMI medium (Gibco 21875-034) enriched with 10% fetal calf serum (FCS, Gibco 10270-106).
50×10^6 cells were extracted, centrifuged (1200 rpm, 10 min, room temperature) and the medium was discarded. Cells were resuspended in 5 mL of RPMI, and 10 μL of a 1 mM solution of the fluorophore calceine.AM (Molecular Probes, C-3100) was added. The suspension was incubated for 30 min at 37° C. in the darkness, with occasional shaking. 40 mL of RPMI was added to stop the labelling and the suspension was centrifuged (1200 rpm, 10 min, room temperature). The medium was discarded, and the labelled cells were washed with 40 mL of RPMI in order to remove the unincorporated fluorescent probe. Finally, cells were resuspended in RPMI enriched with 10% FCS to obtain a 8×10^6 cells/mL suspension.
The plate previously prepared was twice washed with 200 μL per well of PBS and blocked with 200 μL of 1% BSA for at least 1 hour at room temperature.
The products to be tested were dissolved in dimethylsulfoxide at a concentration of 10 mM and dilutions thereof were prepared in RPMI medium enriched with 10% FCS. The products were preincubated with the Jurkat cells at 37° C. for 30 minutes, at a product concentration comprised between 1 nM and 10 μM, at a cell density of 4×10^6 cells/mL and at a maximal dimethylsulfoxide concentration of 0.1%.
100 μL of the resulting cell-product supsension was added per well (cellular density 4×10^5 cells/well). The product was omitted in the control wells and cells or CS-1 were omitted in the blanks. The plate was incubated for 60 min at room temperature in the-darkness, was twice washed with 200 μL per well of RPMI and then 100 μL of PBS was added. The plate was read with a fluorescence reader at an excitation wavelength of 485 nm and at an emission wavelength of 530 nm.
Maximal adhesion (100%) was determined as the average of the fluorescence intensities (FI) of the control wells, and the minimal adhesion as the average FI of the blanks. The adhesion inhibition percentage was determined using the following formula: [formula]
The results are expressed as the IC50 values (concentration producing 50% inhibition). IC50 values were calculated by testing at least 6 product concentrations and by adjusting the inhibition percentages to a dose-response curve of variable slope.

T1 sequence (P13612 34-1032): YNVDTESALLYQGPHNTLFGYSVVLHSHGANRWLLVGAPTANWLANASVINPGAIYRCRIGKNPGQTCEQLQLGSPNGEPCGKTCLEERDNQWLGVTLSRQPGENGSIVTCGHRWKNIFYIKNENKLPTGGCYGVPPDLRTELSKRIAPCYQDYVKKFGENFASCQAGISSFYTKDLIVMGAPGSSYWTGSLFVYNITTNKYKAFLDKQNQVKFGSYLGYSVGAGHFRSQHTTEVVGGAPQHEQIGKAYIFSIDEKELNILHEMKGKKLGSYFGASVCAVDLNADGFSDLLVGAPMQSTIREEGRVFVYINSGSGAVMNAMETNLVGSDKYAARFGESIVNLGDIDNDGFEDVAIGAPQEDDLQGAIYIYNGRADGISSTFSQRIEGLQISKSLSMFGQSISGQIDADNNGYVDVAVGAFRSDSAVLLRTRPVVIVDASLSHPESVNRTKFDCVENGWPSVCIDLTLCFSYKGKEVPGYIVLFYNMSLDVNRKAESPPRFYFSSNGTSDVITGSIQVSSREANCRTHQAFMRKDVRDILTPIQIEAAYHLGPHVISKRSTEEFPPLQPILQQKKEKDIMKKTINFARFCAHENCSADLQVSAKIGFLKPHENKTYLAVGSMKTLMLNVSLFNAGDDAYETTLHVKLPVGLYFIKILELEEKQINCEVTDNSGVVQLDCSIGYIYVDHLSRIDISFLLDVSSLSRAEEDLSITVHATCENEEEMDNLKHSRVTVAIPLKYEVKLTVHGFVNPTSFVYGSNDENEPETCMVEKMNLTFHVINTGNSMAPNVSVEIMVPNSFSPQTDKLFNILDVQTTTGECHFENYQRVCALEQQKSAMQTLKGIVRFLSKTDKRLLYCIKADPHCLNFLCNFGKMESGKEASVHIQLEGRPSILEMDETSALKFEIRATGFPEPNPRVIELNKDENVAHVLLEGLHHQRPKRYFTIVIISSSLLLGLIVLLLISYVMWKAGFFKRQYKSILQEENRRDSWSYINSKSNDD
T1 sequence (P05556 21-798): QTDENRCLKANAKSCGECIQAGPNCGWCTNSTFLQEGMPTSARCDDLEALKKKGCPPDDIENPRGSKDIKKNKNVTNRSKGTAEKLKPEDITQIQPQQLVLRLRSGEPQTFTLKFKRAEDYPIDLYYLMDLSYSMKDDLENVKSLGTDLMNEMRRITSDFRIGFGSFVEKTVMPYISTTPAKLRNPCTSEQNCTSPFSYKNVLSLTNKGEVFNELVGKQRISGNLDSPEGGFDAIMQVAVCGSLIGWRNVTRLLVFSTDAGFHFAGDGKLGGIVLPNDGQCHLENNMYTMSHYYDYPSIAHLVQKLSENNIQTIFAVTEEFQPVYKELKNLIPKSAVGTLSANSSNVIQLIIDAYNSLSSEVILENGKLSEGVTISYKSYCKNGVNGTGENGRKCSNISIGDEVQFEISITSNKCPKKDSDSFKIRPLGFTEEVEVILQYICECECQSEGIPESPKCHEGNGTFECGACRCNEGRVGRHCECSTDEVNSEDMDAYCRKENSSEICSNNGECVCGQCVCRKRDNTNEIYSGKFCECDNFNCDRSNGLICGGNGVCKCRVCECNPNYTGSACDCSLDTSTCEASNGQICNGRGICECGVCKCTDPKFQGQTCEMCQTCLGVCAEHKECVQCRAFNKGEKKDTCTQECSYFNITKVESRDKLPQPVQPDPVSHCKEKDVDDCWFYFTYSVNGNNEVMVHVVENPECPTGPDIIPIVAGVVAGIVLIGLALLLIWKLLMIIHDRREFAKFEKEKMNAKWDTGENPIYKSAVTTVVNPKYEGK

In order of rising IC50:
1. O=C(O)[C@H](CCC(=O)N1CCC(CCOC(=O)N2CCCC2)CC1)NC(=O)[C@@H]1CCCN1S(=O)(=O)c1cc(Cl)cc(Cl)c1 [Example 61, (2S)-2-[1-(3,5-Dichlorophenylsulfonyl)-L-prolylamino]-5-oxo-5-[4-[2-(pyrrolidin-1-ylcarbonyloxy)ethyl]piperidin-1-yl]pentanoic Acid]  2.3 nM
2. COCCNC(=O)OCCC1CCN(C(=O)CC[C@H](NC(=O)[C@@H]2CCCN2S(=O)(=O)c2cc(Cl)cc(Cl)c2)C(=O)O)CC1 [Example 66]  3.5 nM
3. CN1CCN(CC2CCN(C(=O)CC[C@H](NC(=O)[C@@H]3CCCN3S(=O)(=O)c3cc(Cl)cc(Cl)c3)C(=O)O)CC2)CC1 [Example 79, (2S)-2-[1-(3,5-Dichlorophenylsulfonyl)-L-prolylamino]-5-[4-(4-methylpiperazin-1-ylmethyl)piperidin-1-yl]-5-oxopentanoic Acid]  7.6 nM
4. CC(C)S(=O)(=O)NCC1CCN(C(=O)CC[C@H](NC(=O)[C@@H]2CCCN2S(=O)(=O)c2cc(Cl)cc(Cl)c2)C(=O)O)CC1 [Example 60, (2S)-2-[1-(3,5-Dichlorophenylsulfonyl)-L-prolylamino]-5-[4-[(isopropylsulfonylamino)methyl]piperidin-1-yl]-5-oxopentanoic Acid]  11.6 nM
5. CCc1nc2c(C)cc(C)nc2n1CCC1CCN(C(=O)CC[C@H](NC(=O)[C@@H]2CCCN2S(=O)(=O)c2cc(Cl)cc(Cl)c2)C(=O)O)CC1 [Example 59, (2S)-2-[1-(3,5-Dichlorophenylsulfonyl)-L-prolylamino]-5-[4-[2-(2-ethyl-5,7-dimethylimidazo[4,5-b]pyridin-3-yl)ethyl]piperidin-1-yl]-5-oxopentanoic Acid]  13.3 nM
6. Cc1nc2cnccc2n1CC1CCN(C(=O)CC[C@H](NC(=O)[C@@H]2CCCN2S(=O)(=O)c2cc(Cl)cc(Cl)c2)C(=O)O)CC1 [Example 72, (2S)-2-[1-(3,5-Dichlorophenylsulfonyl)-L-prolylamino]-5-[4-(2-methylimidazo[4,5-c]pyridin-1-ylmethyl)piperidin-1-yl]-5-oxopentanoic Acid]  15 nM
7. O=C(O)[C@H](CCC(=O)N1CCC(CN2CCOC2=O)CC1)NC(=O)[C@@H]1CCCN1S(=O)(=O)c1cc(Cl)cc(Cl)c1 [Example 70, (2S)-2-[1-(3,5-Dichlorophenylsulfonyl)-L-prolylamino]-5-oxo-5-[4-(2-oxooxazolidin-3-ylmethyl)piperidin-1-yl]pentanoic Acid]  17 nM
8. O=C(O)[C@H](CCC(=O)N1CCC(CN2Cc3ccccc3C2=O)CC1)NC(=O)[C@@H]1CCCN1S(=O)(=O)c1cc(Cl)cc(Cl)c1 [Example 54, (2S)-5-[4-[(1-Oxoisoindolin-2-yl)methyl]piperidin-1-yl]-2-[1-(3,5-dichlorophenylsulfonyl)-L-prolylamino]-5-oxopentanoic Acid]  22 nM
9. CC(C)(C)NC(=O)NCC1CCN(C(=O)CC[C@H](NC(=O)[C@@H]2CCCN2S(=O)(=O)c2cc(Cl)cc(Cl)c2)C(=O)O)CC1 [Example 56, (2S)-5-[4-[(N′-tert-Butylureido)methyl]piperidin-1-yl]-2-[1-(3,5-dichlorophenylsulfonyl)-L-prolylamino]-5-oxopentanoic Acid]  23 nM
10. O=C(O)[C@H](CCC(=O)N1CCC(CNC(=O)N2CCOCC2)CC1)NC(=O)[C@@H]1CCCN1S(=O)(=O)c1cc(Cl)cc(Cl)c1 [Example 67, (2S)-2-[1-(3,5-Dichlorophenylsulfonyl)-L-prolylamino]-5-[4-(4-morpholinylcarbonylaminomethyl)piperidin-1-yl]-5-oxopentanoic Acid]  33 nM
11. O=C(O)[C@H](CCC(=O)N1CCC(CN2CCCC2=O)CC1)NC(=O)[C@@H]1CCCN1S(=O)(=O)c1cc(Cl)cc(Cl)c1 [Example 71, (2S)-2-[1-(3,5-Dichlorophenylsulfonyl)-L-prolylamino]-5-[4-(2-oxopyrrolidin-1-ylmethyl)piperidin-1-yl]-5-oxopentanoic Acid]  37 nM
12. CCc1nc2c(C)cc(C)nc2n1CC1CCN(C(=O)CC[C@H](NC(=O)[C@@H]2CCCN2S(=O)(=O)c2cc(Cl)cc(Cl)c2)C(=O)O)CC1 [Example 65]  45 nM
13. CCOCCn1c(CN2CCN(C(=O)CC[C@H](NC(=O)[C@@H]3CCCN3S(=O)(=O)c3ccc(C)cc3)C(=O)O)CC2)nc2ccccc21 [Example 74, (2S)-5-[4-[[1-(2-Ethoxyethyl)benzimidazol-2-yl]methyl]piperazin-1-yl]-5-oxo-2-[[1-tosyl-L-prolyl]amino]pentanoic Acid]  48 nM
14. Cc1ccc(S(=O)(=O)N2CCC[C@H]2C(=O)N[C@@H](CCC(=O)N2CCC(Cn3c(C)nc4cnccc43)CC2)C(=O)O)cc1 [Example 73, (2S)-5-[4-(2-Methylimidazo[4,5-c]pyridin-1-ylmethyl)piperidin-1-yl]-5-oxo-2-[1-tosyl-L-prolylamino]pentanoic Acid]  57 nM
15. CC(C)CC(=O)NCC1CCN(C(=O)CC[C@H](NC(=O)[C@@H]2CCCN2S(=O)(=O)c2cc(Cl)cc(Cl)c2)C(=O)O)CC1 [Example 55, (2S)-2-[1-(3,5-Dichlorophenylsulfonyl)-L-prolylamino]-5-[4-[(3-methylbutanoylamino)methyl]piperidin-1-yl]-5-oxopentanoic Acid]  58 nM
16. Cc1ccc(S(=O)(=O)N2CCC[C@H]2C(=O)N[C@@H](CCC(=O)N2CCC(CN3Cc4ccccc4C3=O)CC2)C(=O)O)cc1 [Example 76, (2S)-5-Oxo-5-[4-(1-oxoisoindolin-2-ylmethyl)piperidin-1-yl]-2-[[1-tosyl-L-prolyl]amino]pentanoic Acid]  67 nM
17. Cc1ccc(S(=O)(=O)N2CCC[C@H]2C(=O)N[C@@H](CCC(=O)N2CCN(Cc3ccccn3)CC2)C(=O)O)cc1 [Example 75, (2S)-5-Oxo-5-[4-(2-pyridylmethyl)piperazin-1-yl]-2-[[1-tosyl-L-prolyl]amino]pentanoic Acid]  101 nM
18. CC(C)NC(=S)NCC1CCN(C(=O)CC[C@H](NC(=O)[C@@H]2CCCN2S(=O)(=O)c2cc(Cl)cc(Cl)c2)C(=O)O)CC1 [Example 58, (2S)-2-[1-(3,5-Dichlorophenylsulfonyl)-L-prolylamino]-5-[4-[(N′-isopropylthioureido)methyl]piperidin-1-yl]-5-oxopentanoic Acid]  166 nM
19. Cc1ccc(S(=O)(=O)N2CCC[C@H]2C(=O)N[C@@H](CCC(=O)N2CCC(CN3CCCC3=O)CC2)C(=O)O)cc1 [Example 62, (2S)-5-Oxo-5-[4-[(2-oxopyrrolidin-1-yl)methyl]piperidin-1-yl]-2-[1-tosyl-L-prolylamino]pentanoic Acid]  188 nM
20. Cc1ccc(S(=O)(=O)N2CCC[C@H]2C(=O)N[C@@H](CCC(=O)N2CCC(CNc3nccc(C(F)(F)F)n3)CC2)C(=O)O)cc1 [Example 64, (2S)-5-Oxo-2-[1-tosyl-L-prolyl]amino-5-[4-[[4-(trifluoromethyl)pyrimidin-2-yl]aminomethyl]piperidin-1-yl]pentanoic Acid]  193 nM
21. Cc1ccc(S(=O)(=O)N2CCC[C@H]2C(=O)N[C@@H](CCC(=O)N2CCC(Cn3ccnc3-c3ccccc3)CC2)C(=O)O)cc1 [Example 63, (2S)-5-Oxo-5-[4-(2-phenylimidazol-1-ylmethyl)piperidin-1-yl]-2-[1-tosyl-L-prolylamino]pentanoic Acid]  198 nM
22. Cc1ccc(S(=O)(=O)N2CCC[C@H]2C(=O)N[C@@H](CCC(=O)N2CCN(Cc3cccs3)CC2)C(=O)O)cc1 [Example 77, (2S)-5-Oxo-5-[4-(2-thienylmethyl)piperazin-1-yl]-2-[[1-tosyl-L-prolyl]amino]pentanoic Acid]  247 nM
